Reference: ChEMBL document CHEMBL1201862, “PubChem BioAssay data set” (2004)
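Test compounds were applied to cells in 96-well plates for 48 hours at 5 doses. GI50 marks 50% less growth.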 The source made the active and inactive calls. Cut-off read from the data, not from the text of the source: active = GI50 up to about 1.1 µM and inactive = higher.

Columns and labels:
Assay in all cases: DTP human tumour cell line panel, 48 h
M14 = system: M14
SK-MEL-2 = system: SK-MEL-2
NCI-H226 = system: NCI-H226
HCC 2998 = system: HCC 2998
CAKI-1 = system: CAKI-1
SK-MEL-28 = system: SK-MEL-28
NCI-H522 = system: NCI-H522
SN12C = system: SN12C
SNB-75 = system: SNB-75
SK-MEL-5 = system: SK-MEL-5
SK-OV-3 = system: SK-OV-3
NCI-H23 = system: NCI-H23
KM12 = system: KM12
LOX IMVI = system: LOX IMVI

Measured: GI50

Cc1ccc(NC(=O)/C(C#N)=C/c2ccccc2)c(C)c1
inactive: M14 > 100 µM | SK-MEL-2 > 100 µM | NCI-H226 > 100 µM | HCC 2998 > 100 µM | CAKI-1 > 100 µM | SK-MEL-28 > 100 µM | NCI-H522 > 100 µM | SN12C > 100 µM | SNB-75 > 100 µM | SK-MEL-5 > 100 µM | SK-OV-3 > 100 µM | NCI-H23 > 100 µM | KM12 > 100 µM

COc1ccc2oc(C(=O)O)c3c2c1CCC3CCC(=O)O (configuration not stated)
inactive: SK-MEL-2 > 100 µM | LOX IMVI > 100 µM | HCC 2998 > 100 µM | SK-MEL-28 > 100 µM | NCI-H522 > 100 µM | SN12C > 100 µM | SNB-75 > 100 µM | SK-MEL-5 > 100 µM | SK-OV-3 > 100 µM | NCI-H23 > 100 µM | KM12 > 100 µM

CCCCNC(=O)C1C2CCC(O2)C1C(=O)O (configuration not stated)
inactive: M14 14.2 µM | SK-MEL-2 27.5 µM | NCI-H226 19 µM | LOX IMVI 16.5 µM | HCC 2998 26.2 µM | SK-MEL-28 28 µM | NCI-H522 18.9 µM | SN12C 14 µM | SNB-75 16.8 µM | SK-MEL-5 20.2 µM | SK-OV-3 23.1 µM | NCI-H23 29.4 µM | KM12 56.2 µM

CCCCCCCC/C=C\CCCCCCCC(=O)NCCN(CCN)C(=O)CCCCCCC/C=C\CCCCCCCC
inactive: M14 > 100 µM | NCI-H226 > 100 µM | LOX IMVI > 100 µM | HCC 2998 > 100 µM | CAKI-1 51.5 µM | SK-MEL-28 > 100 µM | SN12C > 100 µM | SK-MEL-5 > 100 µM | SK-OV-3 > 100 µM | NCI-H23 > 100 µM

COc1ccc(NC(=O)CC(=O)N/N=C/c2ccc(N(CCC#N)S(=O)(=O)c3ccccc3)cc2)cc1
inactive: M14 > 100 µM | SK-MEL-2 > 100 µM | NCI-H226 > 100 µM | LOX IMVI > 100 µM | HCC 2998 > 100 µM | CAKI-1 > 100 µM | SK-MEL-28 > 100 µM | NCI-H522 > 100 µM | SNB-75 > 10 µM | SK-MEL-5 > 100 µM | SK-OV-3 > 100 µM | NCI-H23 > 100 µM | KM12 > 100 µM

CCCCCCCCCCC/C(=N/O)c1ccc(O)c2ncccc12
inactive: M14 1.76 µM | SK-MEL-2 2.4 µM | NCI-H226 3.22 µM | LOX IMVI 2.37 µM | HCC 2998 5.28 µM | CAKI-1 3.16 µM | SK-MEL-28 9.25 µM | NCI-H522 2.31 µM | SNB-75 2.52 µM | SK-MEL-5 1.85 µM | NCI-H23 10.4 µM | KM12 6.41 µM

CSc1nc2c(nc(N)n2C2OCC(O)C(O)C2O)c(=O)n1C (configuration not stated)
inactive: M14 > 100 µM | NCI-H226 > 100 µM | LOX IMVI > 100 µM | HCC 2998 > 100 µM | CAKI-1 > 100 µM | SK-MEL-28 > 100 µM | NCI-H522 > 100 µM | SN12C > 100 µM | SNB-75 > 100 µM | SK-MEL-5 > 100 µM | SK-OV-3 > 100 µM | NCI-H23 > 100 µM | KM12 > 100 µM

O=C(Cc1ccccc1)Oc1ccc2c(-c3ccccc3)c(C(=O)Nc3ccc(Cl)cc3)c(=O)oc2c1
inactive: M14 > 100 µM | NCI-H226 > 100 µM | LOX IMVI > 100 µM | HCC 2998 > 100 µM | CAKI-1 > 100 µM | SK-MEL-28 > 100 µM | NCI-H522 > 100 µM | SN12C > 100 µM | SNB-75 > 100 µM | SK-MEL-5 > 100 µM | SK-OV-3 > 100 µM | NCI-H23 > 100 µM | KM12 > 100 µM

Fc1cccc(C2SCc3nc4ccccc4n32)c1F (configuration not stated)
inactive: M14 62.4 µM | SK-MEL-2 7.52 µM | NCI-H226 41.6 µM | LOX IMVI 84.3 µM | HCC 2998 > 100 µM | CAKI-1 59.4 µM | NCI-H522 37.2 µM | SN12C 89.7 µM | SNB-75 > 100 µM | SK-MEL-5 21.6 µM | SK-OV-3 > 100 µM | NCI-H23 49.7 µM | KM12 66.1 µM

O=C(Nc1cc(Cl)c(Cl)cc1Cl)C(=O)C(C(=O)c1ccc2ccccc2c1)C1OC(=O)c2ccccc21 (configuration not stated)
inactive: M14 21.8 µM | SK-MEL-2 14.4 µM | NCI-H226 2.65 µM | LOX IMVI 15.5 µM | CAKI-1 > 10 µM | SK-MEL-28 10.3 µM | NCI-H522 12 µM | SN12C 18.2 µM | SK-MEL-5 11.8 µM | SK-OV-3 60.4 µM | NCI-H23 3.66 µM | KM12 14.6 µM

O=C1CNNC(Cn2nc(-c3ccccc3)c3ccccc3c2=O)=N1
inactive: M14 > 100 µM | SK-MEL-2 > 100 µM | NCI-H226 > 100 µM | HCC 2998 > 100 µM | SK-MEL-28 > 100 µM | NCI-H522 > 100 µM | SN12C > 100 µM | SNB-75 83 µM | SK-MEL-5 > 100 µM | SK-OV-3 > 100 µM | NCI-H23 > 100 µM | KM12 > 100 µM

O=C(O)CCSCCCN1C(=O)c2ccccc2C1=O
inactive: SK-MEL-2 > 100 µM | NCI-H226 > 100 µM | HCC 2998 > 100 µM | SK-MEL-28 > 100 µM | SN12C > 100 µM | SNB-75 > 100 µM | SK-MEL-5 > 100 µM | SK-OV-3 > 100 µM | NCI-H23 > 100 µM | KM12 > 100 µM

Cc1ccc(S(=O)(=O)c2c(N)c3nccn3c3nc4ccccc4nc23)cc1
inactive: M14 > 100 µM | SK-MEL-2 > 100 µM | LOX IMVI > 100 µM | HCC 2998 > 100 µM | CAKI-1 > 100 µM | SK-MEL-28 > 100 µM | NCI-H522 > 100 µM | SN12C > 100 µM | SNB-75 7.85 µM | SK-MEL-5 > 100 µM | SK-OV-3 > 100 µM | NCI-H23 > 100 µM | KM12 > 100 µM

COC(=O)CC(=O)C[P+](c1ccccc1)(c1ccccc1)c1ccccc1
inactive: SK-MEL-2 > 218 µM | NCI-H226 180 µM | LOX IMVI > 218 µM | HCC 2998 > 218 µM | CAKI-1 > 218 µM | SK-MEL-28 196 µM | NCI-H522 37.7 µM | SN12C 95.3 µM | SK-MEL-5 158 µM | SK-OV-3 > 218 µM | NCI-H23 141 µM | KM12 > 218 µM

CCOC(=O)NN1C(=O)C(=P(c2ccccc2)(c2ccccc2)c2ccccc2)C(C(=O)OCC)=C1C
inactive: M14 > 100 µM | SK-MEL-2 > 100 µM | NCI-H226 > 100 µM | LOX IMVI > 100 µM | HCC 2998 > 100 µM | CAKI-1 > 100 µM | NCI-H522 > 100 µM | SN12C > 100 µM | SNB-75 > 100 µM | SK-MEL-5 > 100 µM | SK-OV-3 > 100 µM | NCI-H23 > 100 µM | KM12 > 100 µM

COC(=O)CC(C(C(=O)OCc1ccccc1)C(C)O)N1C(=O)OC(c2ccccc2)C1c1ccccc1 (configuration not stated)
inactive: M14 > 100 µM | SK-MEL-2 > 100 µM | NCI-H226 > 100 µM | LOX IMVI > 100 µM | HCC 2998 > 100 µM | SK-MEL-28 > 100 µM | SN12C > 100 µM | SK-MEL-5 74 µM | NCI-H23 > 100 µM
